Values after ≈ are worked out from the molar mass of the structure shown. Values joined by “and” are separate entries in the source; they are usually repeats but may differ in a detail not shown here. Equal entries are not always repeated. Marks after values point to notes of the source that are not given here.
What was measured:
[1] = system: 20 isolates of Actinobacillus (A.) pleuropneumoniae; experiment: MIC50/MIC90, broth-microdilution, European respiratory tract isolates; assay type: cell-based
Experimental: (§1) The in vitro activity of compounds against 20 isolates of Actinobacillus (A.) pleuropneumoniae, 20 of Bordetella (B.) bronchiseptica, 20 of Histophilus (H.) somni, 40 of Mannheimia (M.) haemolytica and 40 of Pasteurella (P.) multocida collected in different European countries were determined. All bacteria were isolated from the respiratory tract of swine and cattle suffering from respiratory disease. All isolates were epidemiologically unrelated as specified by the different suppliers.
(§2) The minimum inhibitory concentrations (MIC) of compounds according to the invention were determined by the broth-microdilution method according to CLSI document VET01-A4.
(§3) Microdilution trays containing a doubling dilution series of the test compounds were used for the tests.
(§4) The MIC results were interpreted according to the CLSI documents VET01-S3. The lowest concentration of compound at which no visible growth (i.e. no turbidity) detected by the unaided eye was recorded as the MIC.

[2] = system: 20 isolates of Bordetella (B.) bronchiseptica; experiment: as above; assay type: cell-based
Experimental: as §1, §2, §3, §4

[3] = system: 40 isolates of Mannheimia (M.) haemolytica; experiment: as above; assay type: cell-based
Experimental: as §1, §2, §3, §4

[4] = system: 40 isolates of Pasteurella (P.) multocida; experiment: as above; assay type: cell-based
Experimental: as §1, §2, §3, §4

[5] = system: 20 isolates of Histophilus (H.) somni; experiment: as above; assay type: cell-based
Experimental: as §1, §2, §3, §4

[6] = system: Staphylococcus aureus SA 6114 (ATCC 29213, reference strain); experiment: MIC, broth-microdilution (CLSI VET01-A4); assay type: cell-based; conditions: strain SA 6114
Experimental: (§5) The Minimum inhibitory concentrations (MIC) of compounds according to the invention were determined by the broth-microdilution method according to CLSI document VET01-A4.
(§6) Microdilution trays containing a doubling dilution series of the test compound were used for the tests.
as §4

[7] = system: Mannheimia haemolytica MH 12180 (KLI-02944, BRD field isolate); experiment: MIC, broth-microdilution (CLSI VET01-A4); assay type: cell-based; conditions: strain MH 12180
Experimental: as §5, §6, §4

[8] = system: Acinetobacter baumanii AB 16496 (ATCC 19606, reference strain); experiment: MIC, broth-microdilution (CLSI VET01-A4); assay type: cell-based; conditions: strain AB 16496
Experimental: as §5, §6, §4

[9] = system: Staphylococcus aureus SA 5816 (2139, mastitis field isolate); experiment: MIC, broth-microdilution (CLSI VET01-A4); assay type: cell-based; conditions: strain SA 5816
Experimental: as §5, §6, §4

[10] = system: Pasteurella multocida PM 14426 (0006-439, BRD field isolate, macrolide-resistant); experiment: MIC, broth-microdilution (CLSI VET01-A4); assay type: cell-based; conditions: strain PM 14426, macrolide-resistant
Experimental: as §5, §6, §4

[11] = system: Acinetobacter baumanii AB 15919 (IV369-2012, dermatitis field isolate); experiment: MIC, broth-microdilution (CLSI VET01-A4); assay type: cell-based; conditions: strain AB 15919
Experimental: as §5, §6, §4

[12] = system: Pasteurella multocida PM 6391 (ATCC 43137, reference strain); experiment: MIC, broth-microdilution (CLSI VET01-A4); assay type: cell-based; conditions: strain PM 6391
Outline: (§7)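 Compounds were tested in microdilution trays as twofold serial dilutions. The MIC was taken as the lowest concentration with no turbidity visible to the unaided eye, and results were interpreted per CLSI VET01-S3.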

[13] = system: Pasteurella multocida PM 6267 (P 2225 (L386), reference strain, mouse infection strain); experiment: MIC, broth-microdilution (CLSI VET01-A4); assay type: cell-based; conditions: strain PM 6267
Outline: as §7

[14] = system: Mannheimia haemolytica MH 6374 (ATCC 33396, reference strain); experiment: MIC, broth-microdilution (CLSI VET01-A4); assay type: cell-based; conditions: strain MH 6374
Outline: as §7

[15] = system: Pasteurella multocida PM 12080 (IV102277-0093, BRD field isolate); experiment: MIC, broth-microdilution (CLSI VET01-A4); assay type: cell-based; conditions: strain PM 12080
Outline: as §7

[16] = system: Mannheimia haemolytica MH 10720 (154, BRD field isolate); experiment: MIC, broth-microdilution (CLSI VET01-A4); assay type: cell-based; conditions: strain MH 10720
Outline: as §7

[17] = system: Pasteurella multocida PM 10775 (080130003051, BRD field isolate); experiment: MIC, broth-microdilution (CLSI VET01-A4); assay type: cell-based; conditions: strain PM 10775
Outline: as §7

[18] = system: Mannheimia haemolytica MH 12587 (1071, BRD field isolate, macrolide-resistance: erm+, E+); experiment: MIC, broth-microdilution (CLSI VET01-A4); assay type: cell-based; conditions: strain MH 12587, macrolide-resistant
Outline: as §7

[19] = system: Mannheimia haemolytica MH 6357 (M7/2, reference strain, cattle infection strain); experiment: MIC, broth-microdilution (CLSI VET01-A4); assay type: cell-based; conditions: strain MH 6357
Outline: as §7

M. haemolytica = experiment: Mannheimia haemolytica cattle lung infection model, efficacy (Example 10); assay type: in vivo, cattle calves; conditions: for Food consumption, cumulated for all animals in the group: 3 calves, 10 mg/kg
Experimental: Unless otherwise described the study was conducted as described in Clinical Example 8
Calves were infected via intratracheal instillation of appr. 300 mL of M. haemolytica PBS suspension containing approximately 4×10^9 CFU M. haemolytica in late log phase on Day 0.
One hour later three animals each were treated with 10 mg/kg of Compound 231(referred to as C. 231) (80 mg/mL in 10% Poloxamer 188), or 10 mg/kg or 5 mg/kg Compound 329 (referred to as C. 329) (150 mg/mL in 35% Cavitron).
The following clinical findings were recorded: The general behavior scores of the animals before (DO am) and after infection with M. haemolytica in the different treated and control groups are indicated in FIG. 8-1: 0=normal; 1=slightly depressive, 2=moderately depressive, 3=highly depressive, 4=recumbency.
The following pathomorphological findings after section on Day 2 were recorded: After measuring the body weight and the lung weight the Lung body mass ratio was calculated as shown in FIG. 8-2. A healthy animal has a lung body mass ration around 1.7 or lower. The area percentage of lung consolidations compared to the total lung tissue and the lung score determined that is a combined score of such percentage of lung consoldiations and the grade. For the “grade” the degree of lung consolidation score was graded from 0 to 3 for each of eight lung lobes: 0 no visible changes, 1 low graded colour changes or induration, 2 medium graded induration, 3 high graded induration, hepatisation, necrosis.
The geometrical means (CFU/g tissue) of bacteriological re-isolations of Mannheimia haemolytica from lung tissue are illustrated in FIG. 8-4.

[20] = Plasma and tissue concentrations in infected calves (Example 10); assay type: in vivo, cattle calves; conditions: SC single 10 mg/kg (C 231 in 10% Poloxamer 188; C 329 in 35% Cavitron), individual animals and mean
[21] = calves infected with M. haemolytica, SC, single, 10 mg/kg BW

SMILES: CCCNCc1ccc(C#Cc2ccc(C(=O)N[C@H](C(=O)NO)[C@@H](C)O)cc2)cc1 [C. 251]
- MIC50 [1]: 0.25 µg/mL (≈ 0.611 µM)
- MIC90 [1]: 0.5 µg/mL (≈ 1.22 µM)
- MIC50 [2]: >16 µg/mL
- MIC90 [2]: >16 µg/mL
- MIC50 [3]: 1 µg/mL (≈ 2.44 µM)
- MIC90 [3]: 1 µg/mL (≈ 2.44 µM)
- MIC50 [4]: 0.063 µg/mL (≈ 0.154 µM)
- MIC90 [4]: 0.125 µg/mL (≈ 0.305 µM)
- MIC50 [5]: 0.125 µg/mL (≈ 0.305 µM)
- MIC90 [5]: 0.25 µg/mL (≈ 0.611 µM)
- MIC [6]: >16 µg/mL
- MIC [7]: 8 µg/mL (≈ 19.5 µM)
- MIC [8]: >16 µg/mL
- MIC [9]: >16 µg/mL
- MIC [10]: 8 µg/mL (≈ 19.5 µM)
- MIC [11]: >16 µg/mL
- MIC [12]: 8 µg/mL (≈ 19.5 µM)
- MIC [13]: 1 µg/mL (≈ 2.44 µM)
- MIC [14]: 8 µg/mL (≈ 19.5 µM)
- MIC [15]: 0.063 µg/mL (≈ 0.154 µM)
- MIC [16]: 0.25 µg/mL (≈ 0.611 µM)
- MIC [17]: 8 µg/mL (≈ 19.5 µM)
- MIC [18]: 2 µg/mL (≈ 4.88 µM)
- MIC [19]: 2 µg/mL (≈ 4.88 µM)

SMILES: COCCNCc1ccc(C#Cc2ccc(C(=O)N[C@H](C(=O)NO)[C@@H](C)O)cc2)cc1 [C. 231]
- MIC50 [1]: 0.25 µg/mL (≈ 0.588 µM)
- MIC90 [1]: 0.5 µg/mL (≈ 1.18 µM)
- MIC50 [2]: >16 µg/mL
- MIC90 [2]: >16 µg/mL
- MIC50 [3]: 0.5 µg/mL (≈ 1.18 µM)
- MIC90 [3]: 1 µg/mL (≈ 2.35 µM)
- MIC50 [4]: ≤0.016 µg/mL
- MIC90 [4]: 0.063 µg/mL (≈ 0.148 µM)
- MIC50 [5]: 0.125 µg/mL (≈ 0.294 µM)
- MIC90 [5]: 0.25 µg/mL (≈ 0.588 µM)
- Food consumption, cumulated for all animals in the group (M. haemolytica; D 0 am, after infection and treatment): 1800** g
- Food consumption, cumulated for all animals in the group (M. haemolytica; D 0 pm): 4800 g
- Food consumption, cumulated for all animals in the group (M. haemolytica; D +1 am): 4800 g
- Food consumption, cumulated for all animals in the group (M. haemolytica; D +1 pm): 4800 g
- Food consumption, cumulated for all animals in the group (M. haemolytica; D −1 (before infection)): 4800 g
- Bacteriological Cure (x of n) (M. haemolytica; [21]): 2/3
- Survival (x of n) (M. haemolytica; [21]): 3/3
- efficacy against an artificial lung infection with M. haemolytica in the calf (M. haemolytica; tested dosages 10 mg/kg for C 231 and 10 mg/kg and 5 mg/kg for C 329, conclusion in words): effective
- MIC [6]: >16 µg/mL
- MIC [7]: 0.5 µg/mL (≈ 1.18 µM)
- MIC [8]: >16 µg/mL
- MIC [9]: >16 µg/mL
- MIC [10]: 0.032 µg/mL (≈ 0.0752 µM)
- MIC [11]: >16 µg/mL
- Concentration, Tissue (48 h) ELF [20]: BLQ
- Concentration, Tissue (48 h) Muscle [20]: 27 ng/mL
- Concentration, Plasma 0.5 h ([20]; 10 mg/kg): 1150 ng/mL (2×) and 1320 ng/mL
- Concentration, Plasma 2 h ([20]; 10 mg/kg): 448 ng/mL and 468 ng/mL and 447 ng/mL
- Concentration, Plasma 4 h ([20]; 10 mg/kg): 179 ng/mL and 171 ng/mL and 180 ng/mL
- Concentration, Plasma 6 h ([20]; 10 mg/kg): 83.9 ng/mL and 82.8 ng/mL and 102 ng/mL
- Concentration, Plasma 24 h ([20]; 10 mg/kg): 6.21 ng/mL and 10.8 ng/mL and 7.47 ng/mL
- Concentration, Plasma 48 h ([20]; 10 mg/kg): BLQ and 7.16 ng/mL and 5.74 ng/mL
- Concentration, Tissue (48 h) Kidney ([20]; 10 mg/kg): 56 ng/mL and 53.8 ng/mL and 79.3 ng/mL
- Concentration, Tissue (48 h) Liver ([20]; 10 mg/kg): 48.7 ng/mL and 41.2 ng/mL and 66.9 ng/mL
- Concentration, Tissue (48 h) Lung ([20]; 10 mg/kg): 26.6 ng/mL and BLQ and 22.4 ng/mL
- Concentration, Tissue (48 h) Muscle ([20]; 10 mg/kg): BLQ
- Concentration, Plasma 0 h ([20]; predose): BLQ
- MIC [12]: 0.063 µg/mL (≈ 0.148 µM)
- MIC [13]: ≤0.016 µg/mL
- MIC [14]: 0.25 µg/mL (≈ 0.588 µM)
- MIC [15]: 0.063 µg/mL (≈ 0.148 µM)
- MIC [16]: 0.5 µg/mL (≈ 1.18 µM)
- MIC [17]: ≤0.016 µg/mL
- MIC [18]: 0.5 µg/mL (≈ 1.18 µM)
- MIC [19]: 0.5 µg/mL (≈ 1.18 µM)
